Reference: US20230416247A1, “DRUG-LIKE MOLECULES AND METHODS FOR THE THERAPEUTIC TARGETING OF MICRORNA-21” (University of Washington, priority 2020, published 2023)

System: pre-Let7 processing by Dicer-TRBP
Assay: Dicer/TRBP in vitro processing of pre-Let7
Type: biochemical, human
Conditions: 2 μM compound vs no compound
Method: In order to further assess the biochemical activity of our compounds, processing of pre-miR-21 and pre-Let7 by Dicer-TRBP in vitro was compared. FIGS. 9A and 9B show selective response in the rate of processing under early phase reaction conditions, before significant product builds up, for pre-miR21 compared to pre-Let7.
The results are specific to the initial rates (0.25-5 min) of the reaction. […] This is inevitable because Dicer binds the product tightly. This assay and method of inhibiting miR-21 synthesis is different than typical enzymatic assays. First, the small molecule is targeting the substrate of the enzymatic assay. High affinity compounds that change the structure of the substrate may reduce processing but might not inhibit processing completely. Rather, changes in the specificity constant (kcat/Km), are a better measure of small molecule inhibition than traditional Ki's.
Dicer/TRBP. The Dicer/TRBP enzyme complex was expressed and purified using published methods and stored at −80° C. in 20 μL aliquots until needed. Briefly, the gene encoding human full-length Dicer was inserted into a modified pFastBac1 vector (Invitrogen), which has an N-terminal glutathione-S-transferase (GST) tag. […] The clones were transformed into Rosetta 2 cells and the transformants were grown in LB media at 37° C. until the cells reached a density corresponding to an OD reading of 0.8 at 600 nm. […]

O=c1[nH]c(Nc2ccc(N3CCNCC3)cn2)nc2cccnc12 [Compound 25]
DICER/TRBP activity on pre-Let7: no significant difference in activity is observed
